± gives the expanded uncertainty stated by the source.
Test: molar heat capacity at constant pressure
Settings: 101.33 kPa, Small (less than 1 g) adiabatic calorimetry

CCCCn1cc[n+](C)c1.F[P-](F)(F)(F)(F)F [1-butyl-3-methylimidazolium hexafluorophosphate]
Settings | molar heat capacity at constant pressure [J/K/mol]
125.32 K, Metastable crystal | 185.9 ± 1
127.15 K, Metastable crystal | 191.2 ± 1
127.23 K, Metastable crystal | 188.2 ± 1
129.05 K, Metastable crystal | 193.4 ± 1
129.15 K, Metastable crystal | 190.5 ± 1
130.95 K, Metastable crystal | 195.6 ± 1
131.06 K, Metastable crystal | 192.8 ± 1
132.85 K, Metastable crystal | 197.9 ± 1.1
132.97 K, Metastable crystal | 195.1 ± 1
134.75 K, Metastable crystal | 200.2 ± 1.1
134.88 K, Metastable crystal | 197.5 ± 1.1
136.65 K, Metastable crystal | 202.5 ± 1.1
136.8 K, Metastable crystal | 199.9 ± 1.1
138.55 K, Metastable crystal | 204.9 ± 1.1
138.71 K, Metastable crystal | 202.4 ± 1.1
140.45 K, Metastable crystal | 207.2 ± 1.1
140.62 K, Metastable crystal | 204.8 ± 1.1
142.35 K, Metastable crystal | 209.7 ± 1.1
142.52 K, Metastable crystal | 207.4 ± 1.1
144.24 K, Metastable crystal | 212.3 ± 1.1
144.42 K, Metastable crystal | 209.9 ± 1.1
146.13 K, Metastable crystal | 214.9 ± 1.1
146.33 K, Metastable crystal | 212.5 ± 1.1
148.01 K, Metastable crystal | 217.6 ± 1.2
148.23 K, Metastable crystal | 215.1 ± 1.1
149.9 K, Metastable crystal | 220.4 ± 1.2
150.13 K, Metastable crystal | 217.7 ± 1.2
151.78 K, Metastable crystal | 223.4 ± 1.2
152.02 K, Metastable crystal | 220.4 ± 1.2
153.65 K, Metastable crystal | 226.5 ± 1.2
153.91 K, Metastable crystal | 223.1 ± 1.2
155.52 K, Metastable crystal | 229.7 ± 1.2
155.79 K, Metastable crystal | 225.9 ± 1.2
157.39 K, Metastable crystal | 233.2 ± 1.2
157.67 K, Metastable crystal | 228.7 ± 1.2
159.24 K, Metastable crystal | 236.9 ± 1.2
159.55 K, Metastable crystal | 231.5 ± 1.2
161.09 K, Metastable crystal | 241 ± 1.3
161.42 K, Metastable crystal | 234.4 ± 1.2
162.93 K, Metastable crystal | 245.5 ± 1.3
163.29 K, Metastable crystal | 237.3 ± 1.3
164.76 K, Metastable crystal | 250.5 ± 1.3
165.15 K, Metastable crystal | 240.3 ± 1.3
166.58 K, Metastable crystal | 256.4 ± 1.3
167.01 K, Metastable crystal | 243.2 ± 1.3
168.38 K, Metastable crystal | 263.5 ± 1.4
168.87 K, Metastable crystal | 246.3 ± 1.3
170.16 K, Metastable crystal | 272.5 ± 1.4
170.71 K, Metastable crystal | 249.4 ± 1.3
171.91 K, Metastable crystal | 285.3 ± 1.5
172.55 K, Metastable crystal | 252.6 ± 1.3
173.61 K, Metastable crystal | 306.7 ± 1.7
174.39 K, Metastable crystal | 256.1 ± 1.3
175.22 K, Metastable crystal | 360.5 ± 2.1
176.22 K, Metastable crystal | 258.9 ± 1.4
176.68 K, Metastable crystal | 448.8 ± 2.6
178.04 K, Metastable crystal | 260.8 ± 1.4
178.27 K, Metastable crystal | 265.8 ± 1.4
179.86 K, Metastable crystal | 263.5 ± 1.4
180.09 K, Metastable crystal | 261.1 ± 1.4
181.68 K, Metastable crystal | 266.1 ± 1.4
181.91 K, Metastable crystal | 261.4 ± 1.4
183.5 K, Metastable crystal | 268.6 ± 1.4
183.75 K, Metastable crystal | 262.7 ± 1.4
185.31 K, Metastable crystal | 270.9 ± 1.4
185.58 K, Metastable crystal | 264.6 ± 1.4
187.12 K, Metastable crystal | 273 ± 1.4
187.4 K, Metastable crystal | 266.8 ± 1.4
188.92 K, Metastable crystal | 274.8 ± 1.4
189.22 K, Metastable crystal | 269.2 ± 1.4
190.72 K, Metastable crystal | 276.4 ± 1.4
191.04 K, Metastable crystal | 271.8 ± 1.4
192.53 K, Metastable crystal | 277.7 ± 1.4
192.86 K, Metastable crystal | 274.6 ± 1.4
194.33 K, Metastable crystal | 278.7 ± 1.5
194.66 K, Metastable crystal | 277.6 ± 1.4
196.13 K, Metastable crystal | 279.3 ± 1.5
196.47 K, Metastable crystal | 280.8 ± 1.5
197.94 K, Metastable crystal | 279.8 ± 1.5
198.27 K, Metastable crystal | 284.1 ± 1.5
199.74 K, Metastable crystal | 280 ± 1.5
200.05 K, Metastable crystal | 287.7 ± 1.5
201.61 K, Metastable crystal | 280.4 ± 1.5
201.89 K, Metastable crystal | 291.8 ± 1.5
203.54 K, Metastable crystal | 280.7 ± 1.5
203.78 K, Metastable crystal | 296.2 ± 1.5
205.47 K, Metastable crystal | 281 ± 1.5
205.65 K, Metastable crystal | 301.3 ± 1.6
207.4 K, Metastable crystal | 281.3 ± 1.5
207.51 K, Metastable crystal | 306.9 ± 1.6
209.34 K, Metastable crystal | 281.8 ± 1.5
209.36 K, Metastable crystal | 313.5 ± 1.6
211.19 K, Metastable crystal | 322.6 ± 1.7
211.28 K, Metastable crystal | 282.5 ± 1.5
213 K, Metastable crystal | 333.5 ± 1.7
213.22 K, Metastable crystal | 283.4 ± 1.5
214.77 K, Metastable crystal | 351.9 ± 1.8
215.16 K, Metastable crystal | 284.4 ± 1.5
216.47 K, Metastable crystal | 395.3 ± 2.1
217.1 K, Metastable crystal | 285.1 ± 1.5
218.22 K, Metastable crystal | 317.7 ± 1.7
219.04 K, Metastable crystal | 285.7 ± 1.5
220.12 K, Metastable crystal | 285.9 ± 1.5
220.98 K, Metastable crystal | 286.7 ± 1.5
222.07 K, Metastable crystal | 286.7 ± 1.5
222.93 K, Metastable crystal | 287.8 ± 1.5
224.04 K, Metastable crystal | 287.5 ± 1.5
224.86 K, Metastable crystal | 288.7 ± 1.5
226.9 K, Metastable crystal | 290 ± 1.5
228.84 K, Metastable crystal | 291.1 ± 1.5
230.78 K, Metastable crystal | 292 ± 1.5
232.72 K, Metastable crystal | 293 ± 1.5
234.67 K, Metastable crystal | 294.1 ± 1.5
236.61 K, Metastable crystal | 295.2 ± 1.5
238.55 K, Metastable crystal | 296.3 ± 1.5
240.49 K, Metastable crystal | 298.3 ± 1.5
242.43 K, Metastable crystal | 299.6 ± 1.6
286.27 K, Liquid | 400.3 ± 2
287.99 K, Liquid | 401.2 ± 2.1
289.7 K, Liquid | 402.1 ± 2.1
291.41 K, Liquid | 403 ± 2.1
293.12 K, Liquid | 404 ± 2.1
294.83 K, Liquid | 405.1 ± 2.1
296.54 K, Liquid | 405.8 ± 2.1
298.25 K, Liquid | 406.9 ± 2.1
299.96 K, Liquid | 407.8 ± 2.1
301.71 K, Liquid | 409.1 ± 2.1
303.52 K, Liquid | 410.1 ± 2.1
305.33 K, Liquid | 411 ± 2.1
307.14 K, Liquid | 412 ± 2.1
308.95 K, Liquid | 412.9 ± 2.1
310.75 K, Liquid | 414 ± 2.1
312.56 K, Liquid | 415.1 ± 2.1
314.36 K, Liquid | 415.8 ± 2.1
316.16 K, Liquid | 417 ± 2.1
317.97 K, Liquid | 418 ± 2.1
319.77 K, Liquid | 419.2 ± 2.1
321.57 K, Liquid | 420.1 ± 2.1
323.38 K, Liquid | 421 ± 2.1
325.18 K, Liquid | 422 ± 2.2
326.98 K, Liquid | 423.2 ± 2.2
328.78 K, Liquid | 423.9 ± 2.2
330.59 K, Liquid | 425 ± 2.2
332.39 K, Liquid | 426.1 ± 2.2
334.19 K, Liquid | 427.2 ± 2.2
335.99 K, Liquid | 428.2 ± 2.2
337.79 K, Liquid | 429.2 ± 2.2
339.59 K, Liquid | 430.2 ± 2.2
341.39 K, Liquid | 431.1 ± 2.2
343.18 K, Liquid | 432.1 ± 2.2
344.98 K, Liquid | 433.1 ± 2.2
346.78 K, Liquid | 434.1 ± 2.2
348.58 K, Liquid | 435.2 ± 2.2
350.38 K, Liquid | 436.3 ± 2.2
352.18 K, Liquid | 437.4 ± 2.2
353.99 K, Liquid | 438.3 ± 2.2
355.79 K, Liquid | 439.3 ± 2.2
357.59 K, Liquid | 440.3 ± 2.2
359.4 K, Liquid | 441.1 ± 2.2
361.2 K, Liquid | 442.4 ± 2.3
363 K, Liquid | 443.4 ± 2.3
364.81 K, Liquid | 444.5 ± 2.3
366.61 K, Liquid | 445.6 ± 2.3
368.41 K, Liquid | 446.3 ± 2.3

— the NIST ThermoML archive (doi:10.1016/j.jct.2016.07.012)
